Laboratory results taken from US20250214977A1, “STAT6 INHIBITORS AND USES THEREOF” (Kymera Therapeutics, Inc., priority 2024, published 2025).

Tested on: Phosphorylation of STAT6 in human PBMC (CD19+ B cells)
Test: Phosphorylated STAT6 (pSTAT6) flow cytometry assay in human PBMC, IL-4 stimulated
Format: cell-based
Conditions: compound 1 hour, 1 ng/ml IL-4 for 15 minutes, read-out: STAT6 IL4 pSTAT6 assay in PBMC: Average IC50
Protocol: Example 2. Phosphorylated STAT6 (pSTAT6) Flow Cytometry Assay in Human PBMC
Phosphorylation of STAT6 in human PBMC was quantitatively measured using flow cytometry technology. Human PBMC were seeded in 96-well plates with a density of 0.3 to 0.5 million cells per well in 100 μl fresh media. Compounds were then added to the assay plates with a final top concentration of up to 30 μM in a 1:3 dilution series with total of 9 doses. The assay plates were incubated for 1 hour at 37° C. under 5% CO2. The cells were then stimulated with 1 ng/ml of IL-4 (R&D Systems, Cat #6507-IL) for 15 minutes, followed by fixation for 30 minutes at 4° C. Cells were spun down at 350 g for 5 minutes. The supernatant was removed and cells were washed once with FACS buffer. Cells were permeabilized with 90% MeOH/H2O for 30 minutes at 4° C., followed by one wash with FACS buffer. Non-specific binding were blocked with human Fc for 1 hour at 4 C, followed by one wash with FACS buffer. AF488 conjugated pSTAT6 antibody (BD Biosciences, Cat #612600, 1:100 dilution) and PE conjugated CD19 antibody (BD Biosciences, Cat #341103, 1:50 dilution) diluted in 100 μl FACS buffer was added to each well with overnight incubation at 4° C. Cells were then washed once with FACS buffer and resuspended in 200 μl of FACS buffer for flow cytometry to quantify pSTAT6 in CD19+ B cells. The data was analyzed by GraphPad Prism and the dose dependent pSTAT6 inhibition was fit using the four-parameter inhibitor vs. response nonlinear regression.

SMILES | IC50 [µM]
CN(C)C(=O)c1cc2ccc(C3=CCCN(C(=O)COc4ccc(C(=O)O)cc4)C3)cc2[nH]1 [Example I-67] | 10 to 100
COC(=O)c1ccc(CCC(=O)N2CCC=C(c3ccc4cc(C(=O)N(C)C)[nH]c4c3)C2)[nH]1 [Example I-68] | 10 to 100
CN(C)C(=O)c1cc2ccc(C3=CCCN(C(=O)c4cccnc4CS(C)(=O)=O)C3)cc2[nH]1 [Example I-69] | > 100
CNS(=O)(=O)c1cccc(C(=O)N2CCC=C(c3ccc4cc(C(=O)N(C)C)[nH]c4c3)C2)c1 [Example I-70] | > 100
CN(C)C(=O)c1cc2ccc(C3=CCCN(C(=O)C4ON=C(c5ccccc5)O4)C3)cc2[nH]1 (centres unmarked) [Example I-71] | 10 to 100
CC(=O)OCC(C(=O)N1CCC=C(c2ccc3cc(C(=O)N(C)C)[nH]c3c2)C1)c1ccccc1 (centres unmarked) [Example I-73] | 10 to 100
Cc1cc(Cl)c(S(C)(=O)=O)cc1C(=O)N1CCC=C(c2ccc3cc(C(=O)N(C)C)[nH]c3c2)C1 [Example I-74] | 10 to 100
CN(C)C(=O)c1cc2ccc(C3=CCCN(C(=O)CN(C)S(=O)(=O)c4ccccc4)C3)cc2[nH]1 [Example I-75] | 10 to 100
CN(C)C(=O)c1cc2ccc(C3=CCCN(C(=O)[C@@H]4C[C@H](c5ccccc5)CN4)C3)cc2[nH]1 [Example I-76] | > 100
CC(=O)NC(C(=O)N1CCC=C(c2ccc3cc(C(=O)N(C)C)[nH]c3c2)C1)c1cccc(Cl)c1 (centres unmarked) [Example I-77] | 10 to 100
CN(C)C(=O)c1cc2ccc(C3=CCCN(C(=O)C4(c5ccc(Cl)cc5)CC(O)C4)C3)cc2[nH]1 (centres unmarked) [Example I-78] | > 100
CN(C)C(=O)c1cc2ccc(C3=CCCN(C(=O)CN4C(=O)COc5ccccc54)C3)cc2[nH]1 [Example I-79] | 10 to 100
CN(C)C(=O)c1cc2ccc(C3=CCCN(C(=O)CCn4ncc5cc(Cl)ncc54)C3)cc2[nH]1 [Example I-80] | > 100
CCOC(=O)N(CC(=O)N1CCC=C(c2ccc3cc(C(=O)N(C)C)[nH]c3c2)C1)Cc1ccco1 [Example I-81] | > 100
CC(=O)NC(Cc1cccc(F)c1)C(=O)N1CCC=C(c2ccc3cc(C(=O)N(C)C)[nH]c3c2)C1 (centres unmarked) [Example I-82] | 10 to 100
CN(C)C(=O)c1cc2ccc(C3=CCCN(C(=O)c4ccc(-c5ccc(Cl)cc5)cc4)C3)cc2[nH]1 [Example I-83] | 10 to 100
CN(C)C(=O)c1cc2ccc(C3=CCCN(C(=O)C4(c5ccc(C(F)(F)F)cc5)CC4)C3)cc2[nH]1 [Example I-84] | > 100
CN(C)C(=O)c1cc2ccc(C3=CCCN(C(=O)CCCn4c(=O)[nH]c5ccccc54)C3)cc2[nH]1 [Example I-85] | > 100
Cc1cccc(-c2ncccc2C(=O)N2CCC=C(c3ccc4cc(C(=O)N(C)C)[nH]c4c3)C2)c1 [Example I-86] | > 100
CN(C)C(=O)c1cc2ccc(C3=CCCN(C(=O)C4(c5ccccc5)CCC(=O)NC4)C3)cc2[nH]1 (centres unmarked) [Example I-87] | 10 to 100
CN(C)C(=O)c1cc2ccc(C3=CCCN(C(=O)C4CC(=O)N(Cc5ccccc5)C4)C3)cc2[nH]1 (centres unmarked) [Example I-88] | 10 to 100

SMILES | IC50 [µM]
Cc1nc(-c2ccccc2F)c(C(=O)N2CCC=C(c3ccc4cc(C(=O)N(C)C)[nH]c4c3)C2)o1 [Example I-89] | > 100
CN(C)C(=O)c1cc2ccc(C3=CCCN(C(=O)CCCn4ncc5nc(Cl)ccc54)C3)cc2[nH]1 [Example I-90] | 10 to 100
CN(C)C(=O)c1cc2ccc(C3=CCCN(C(=O)CC(c4ccccc4)c4ccccc4)C3)cc2[nH]1 [Example I-91] | 10 to 100
CN(C)C(=O)c1cc2ccc(C3=CCCN(C(=O)c4ccccc4CSc4ccccc4)C3)cc2[nH]1 [Example I-92] | 10 to 100
CN(C)C(=O)c1cc2ccc(C3=CCCN(C(=O)C4COCC(=O)N4Cc4ccccc4)C3)cc2[nH]1 (centres unmarked) [Example I-93] | 10 to 100
CN(C)C(=O)c1cc2ccc(C3=CCCN(C(=O)c4cccnc4-c4cc(F)cc(F)c4)C3)cc2[nH]1 [Example I-94] | 10 to 100
CN(C)C(=O)c1cc2ccc(C3=CCCN(C(=O)c4cccnc4SCc4ccccc4)C3)cc2[nH]1 [Example I-95] | > 100
CCC[C@@H](C(=O)N1CCC=C(c2ccc3cc(C(=O)N(C)C)[nH]c3c2)C1)N1Cc2ccccc2C1=O [Example I-96] | 10 to 100
Cc1cccc(C)c1N1CC(C(=O)N2CCC=C(c3ccc4cc(C(=O)N(C)C)[nH]c4c3)C2)CC1=O (centres unmarked) [Example I-97] | 10 to 100
CN(C)C(=O)c1cc2ccc(C3=CCCN(C(=O)C4(O)CCN(Cc5ccccc5)CC4)C3)cc2[nH]1 [Example I-98] | 10 to 100
CN(C)C(=O)c1cc2ccc(C3=CCCN(C(=O)[C@@H]4CCCN4C(=O)c4ccc(F)cc4)C3)cc2[nH]1 [Example I-99] | > 100
CN(C)C(=O)c1cc2ccc(C3=CCCN(C(=O)C4CN(Cc5ccccc5)CCO4)C3)cc2[nH]1 (centres unmarked) [Example I-100] | 10 to 100
CN(C)C(=O)c1cc2ccc(C3=CCCN(C(=O)CNC(=O)c4cccc(C(F)(F)F)c4)C3)cc2[nH]1 [Example I-101] | > 100
CN(C)C(=O)c1cc2ccc(C3=CCCN(C(=O)c4cc5occc5n4-c4ccccc4)C3)cc2[nH]1 [Example I-102] | 10 to 100
CN(C)C(=O)c1cc2ccc(C3=CCCN(C(=O)C(CC4CC4)N4Cc5ccccc5C4=O)C3)cc2[nH]1 (centres unmarked) [Example I-104] | > 100
CN(C)C(=O)c1cc2ccc(C3=CCCN(C(=O)c4ccccc4-c4ccccc4C(=O)O)C3)cc2[nH]1 [Example I-105] | 10 to 100
Cc1ccccc1OCc1ccccc1C(=O)N1CCC=C(c2ccc3cc(C(=O)N(C)C)[nH]c3c2)C1 [Example I-106] | 1 to 10
CN(C)C(=O)c1cc2ccc(C3=CCCN(C(=O)Cc4cccc(OCc5ccccc5)c4)C3)cc2[nH]1 [Example I-107] | 0.1 to 1
CN(C)C(=O)c1cc2ccc(C3=CCCN(C(=O)c4ccccc4C(=O)c4ccc(F)cc4)C3)cc2[nH]1 [Example I-108] | > 100
CN(C)C(=O)c1cc2ccc(C3=CCCN(C(=O)C4CCN(c5ncccc5C(=O)O)CC4)C3)cc2[nH]1 [Example I-109] | 10 to 100
CN(C)C(=O)c1cc2ccc(C3=CCCN(C(=O)c4cc(=O)c(OCc5ccccc5)c[nH]4)C3)cc2[nH]1 [Example I-110] | > 100

SMILES | IC50 [µM]
Cc1ccc(C(=O)N2CCC=C(c3ccc4cc(C(=O)N(C)C)[nH]c4c3)C2)c(=O)n1-c1ccc(F)cc1 [Example I-111] | > 100
CN(C)C(=O)c1cc2ccc(C3=CCCN(C(=O)CCC(=O)O)C3)cc2[nH]1 [Example I-112] | > 100
CNc1ccc(-c2cc(C3=CCCN(C(=O)CCn4ccnn4)C3)cc3[nH]c(C(=O)N(C)C)cc23)cc1 [Example I-113] | < 0.1
CNc1ccc(-c2cc(C3=CCCN(C(=O)CCn4ccnn4)C3)cc3[nH]c(C(=O)N(C)C)cc23)c(C)c1 [Example I-114] | 0.1 to 1
CNc1ccc(-c2cc(C3=CCCN(C(=O)CCn4ccnn4)C3)cc3[nH]c(C(=O)N(C)C)cc23)c(F)c1 [Example I-115] | 1 to 10
CNc1ccc(-c2cc(C3=CCCN(C(=O)CCn4ccnn4)C3)cc3[nH]c(C(=O)N(C)C)cc23)nc1 [Example I-116] | 0.1 to 1
CNc1ccc(-c2cc(C3=CCCN(C(=O)CCn4ccnn4)C3)cc3[nH]c(C(=O)N(C)C)cc23)c(OC)c1 [Example I-117] | < 0.1
CNc1ccc(-c2cc(C3=CCCN(C(=O)CCn4ccnn4)C3)cc3[nH]c(C(=O)N(C)C)cc23)c(Cl)c1 [Example I-118] | < 0.1
O=C(CCn1ccnn1)N1CCC=C(c2ccc3cc(-c4ccccn4)[nH]c3c2)C1 [Example I-119] | > 100
CN(C)C(=O)c1cc2ccc(C3=CCCN(C(=O)OCn4ccnn4)C3)cc2[nH]1 [Example I-120] | > 100
CN(C)C(=O)c1cc2ccc(C3=CCCN(C(=O)[C@@H](Cn4ccnn4)c4cccc(O)c4)C3)cc2[nH]1 [Example I-122] | > 100
O=C(CCn1ccnn1)N1CCC=C(c2ccc3cc(C(=O)N4CCCCC4)[nH]c3c2)C1 [Example I-123] | 10 to 100
O=C(CCn1ccnn1)N1CCC=C(c2ccc3cc(C(=O)N4CCCC4)[nH]c3c2)C1 [Example I-124] | > 100
O=C(CCn1ccnn1)N1CCC=C(c2ccc3cc(C(=O)N4CCC4)[nH]c3c2)C1 [Example I-125] | > 100
CC1CCCN(C(=O)c2cc3ccc(C4=CCCN(C(=O)CCn5ccnn5)C4)cc3[nH]2)C1 (centres unmarked) [Example I-126] | > 100
CC1CCCN(C(=O)c2cc3ccc(C4=CCCN(C(=O)CCn5ccnn5)C4)cc3[nH]2)C1 (centres unmarked) [Example I-127] | 10 to 100
O=C(CCn1ccnn1)N1CCC=C(c2ccc3oc(C(=O)N4CCCCC4)cc3c2)C1 [Example I-128] | 10 to 100
CN(C)C(=O)c1cc2ccc(C3=CCCN(C(=O)c4ccc5c(c4)OCC(=O)N5)C3)cc2[nH]1 [Example I-132] | > 100
Cc1cc(CC(=O)N2CCC=C(c3ccc4cc(C(=O)N(C)C)[nH]c4c3)C2)on1 [Example I-133] | > 100
CN(C)C(=O)c1cc2ccc(C3=CCCN(C(=O)CCN4CCOC4=O)C3)cc2[nH]1 [Example I-134] | > 100
